{
  "source": "patent US4221794A",
  "about": "“Method of imparting immunomodulating and antiviral activity” (Newport Pharmaceuticals International, Inc., priority 1979, dated 1980)",
  "key": {"[1]": {"system": "spleen cells", "assay": "In vitro treatment of Con A stimulated mouse spleen cells", "type": "cell-based", "conditions": "for ability to augment Con A stimulation (in words): compound 1 μg/ml, Con A 5 μg/ml", "protocol": "The following day, each group was sacrificed and the spleens removed and pooled. […] The cell concentration of each preparation was determined by a Coulter counter and adjusted to 5×10^6 cells/ml with RPMI medium.\nMicrotiter assays were carried out in 0.2 ml incubations, containing 5×10^5 cells and Con A or Con A and compounds at the indicated concentrations. All assays were performed with 6 replicates and compared with a blank assay containing only cells. The assay plates were incubated at 37° in 5% CO2 for 4 days. During the final 18-20 hours of incubation, 0.5 ml of ^3 HTdR (10 μCi/ml, 6 Ci /m mole) were added to each culture. The cultures were harvested with a multiple automatic sample harvester (MASH) unit and the incorporated ^3 HTdR determined with a Beckman LS 8000 liquid scintillation counter, as a measure of cell proliferation."}, "[2]": {"system": "influenza virus", "assay": "microbe, parasite or virus in culture", "type": "cell-based, influenza virus Type A/USSR 90 (HeLa cell cultures)"}, "[3]": {"assay": "Phase solubility study with DIP.PAcBA", "type": "physicochemical", "conditions": "constant pH", "source_text": "This is indicative of an interaction occuring in solution to yield a complex."}, "[4]": {"system": "A2 Hong Kong (H2 N2)", "assay": "Inhibition of influenza virus replication, A2 Hong Kong", "type": "cell-based"}, "[5]": {"system": "A/Jap/305 (H2 N2)", "assay": "Inhibition of influenza virus replication, A/Jap/305", "type": "cell-based, influenza virus A/Jap/305"}, "[6]": {"system": "A/Dunedin/73 (H3 N2)", "assay": "Inhibition of influenza virus replication, A/Dunedin/73", "type": "cell-based, influenza virus A/Dunedin/73"}, "[7]": {"system": "A/Texas/77 (H3 N2)", "assay": "Inhibition of influenza virus replication, A/Texas/77", "type": "cell-based, influenza virus A/Texas/77"}, "[8]": {"system": "A/PR8 (H0 N1)", "assay": "Inhibition of influenza virus replication, A/PR8", "type": "cell-based"}, "[9]": {"system": "Influenza A Swine 1976 (Hlsw -N1)", "type": "cell-based", "conditions": "A/Swine/76 (Hlsw N1)"}},
  "note": "Read-outs that look alike come from different tables or passages of the source.",
  "data": [
    {"molecule": "CCCCCC[C@H]([C@H](C)O)n1cnc2c(=O)[nH]cnc21", "note": "(relative stereo) [NPT 15392, ERYTHRO-9-(2-HYDROXY-3-NONYL)HYPOXANTHINE]", "values": [
      {"measurement": "fold induction at 1 µg/mL", "setting": "[1]; Mus musculus, 96 h, Con A 5 μg/l as printed, compound 1 μg/ml in vitro, read-out: stimulation over Con A alone", "result": 2.8},
      {"measurement": "ability to augment Con A stimulation (in words)", "setting": "[1]", "result": "marked ability to augment the Con A stimulation"},
      {"measurement": "% Inhibition of Hemadsorption Foci", "setting": "[2]; Test Compound Conc. <10 μg/ml", "result": 86, "unit": "%"},
      {"measurement": "inhibition at 100 µg/mL", "setting": "[2]; unidentified influenza virus, read-out: % Inhibition of Hemadsorption Foci, Test Compound Conc. >100 μg/ml", "result": 100, "unit": "%"},
      {"measurement": "solubility with DIP.PAcBA (phase solubility)", "setting": "[3]", "result": "increased solubility at increasing concentrations of DIP.PAcBA"}
    ]},
    {"molecule": "CCCCCC[C@H]([C@H](C)O)n1cnc2c(=O)[nH]cnc21", "note": "(relative stereo) [NPT 15410]", "values": [
      {"measurement": "Inhibition of influenza virus replication", "setting": "[4]; 10.0-100 μg/ml", "result": "++ (30-50% Inhibition)"},
      {"measurement": "Inhibition of influenza virus replication", "setting": "[4]; >100 μg/ml", "result": "+++ (50-70% Inhibition)"},
      {"measurement": "Inhibition of influenza virus replication", "setting": "[5]; A/Jap/305, 10.0-100 μg/ml", "result": "++++ (>70% Inhibition)"},
      {"measurement": "Inhibition of influenza virus replication", "setting": "[5]; A/Jap/305, >100 μg/ml", "result": "++++ (>70% Inhibition)"},
      {"measurement": "Inhibition of influenza virus replication", "setting": "[6]; A/Dunedin/73, 10.0-100 μg/ml", "result": "± (10-20% Inhibition)"},
      {"measurement": "Inhibition of influenza virus replication", "setting": "[6]; A/Dunedin/73, >100 μg/ml", "result": "++ (30-50% Inhibition)"},
      {"measurement": "Inhibition of influenza virus replication", "setting": "[7]; A/Texas/77, 1.0-10.0 μg/ml", "result": "+ (20-30% Inhibition)"},
      {"measurement": "Inhibition of influenza virus replication", "setting": "[7]; A/Texas/77, 10.0-100 μg/ml", "result": "++++ (>70% Inhibition)"},
      {"measurement": "Inhibition of influenza virus replication", "setting": "[7]; A/Texas/77, .01-1.0 μg/ml", "result": "++ (30-50% Inhibition)"},
      {"measurement": "Inhibition of influenza virus replication", "setting": "[7]; A/Texas/77, >100 μg/ml", "result": "++++ (>70% Inhibition)"},
      {"measurement": "stimulation over Con A alone", "setting": "[1]; Con A 5 μg/l as printed, compound 1 μg/ml in vitro, 5760 min", "result": 3.3, "unit": "fold"},
      {"measurement": "ability to augment Con A stimulation (in words)", "setting": "[1]", "result": "marked ability to augment the Con A stimulation"},
      {"measurement": "Inhibition of influenza virus replication", "setting": "[8]; A/PR8, 1.0-10.0 μg/ml", "result": "++ (30-50% Inhibition)"},
      {"measurement": "Inhibition of influenza virus replication", "setting": "[8]; A/PR8, 10.0-100 μg/ml", "result": "++++ (>70% Inhibition)"},
      {"measurement": "Inhibition of influenza virus replication", "setting": "[8]; A/PR8, .01-1.0 μg/ml", "result": "++ (30-50% Inhibition)"},
      {"measurement": "Inhibition of influenza virus replication", "setting": "[8]; A/PR8, >100 μg/ml", "result": "+++ (50-70% Inhibition)"},
      {"measurement": "% Inhibition of Hemadsorption Foci", "setting": "[2]; Test Compound Conc. <10 μg/ml", "result": 58, "unit": "%"},
      {"measurement": "% Inhibition of Hemadsorption Foci", "setting": "[2]; Test Compound Conc. >100 μg/ml", "result": 96, "unit": "%"},
      {"measurement": "Inhibition of influenza virus replication", "setting": "[9]; 1.0-10.0 μg/ml", "result": "++ (30-50% Inhibition)"},
      {"measurement": "Inhibition of influenza virus replication", "setting": "[9]; 10.0-100 μg/ml", "result": "++++ (>70% Inhibition)"},
      {"measurement": "Inhibition of influenza virus replication", "setting": "[9]; .01-1.0 μg/ml", "result": "+++ (50-70% Inhibition)"},
      {"measurement": "Inhibition of influenza virus replication", "setting": "[9]; >100 μg/ml", "result": "++++ (>70% Inhibition)"}
    ]}
  ]
}
